# In PMC7347136 (PLoS ONE, 2020):
# Where two headings read alike, the source gives them in different places.
# Tests used:
# CDK2/cyclin A = target: T1, CDK2/cyclin A (Homo sapiens, UniProt P24941); assay: Carna IC50 determination; type: biochemical; settings: around Km [ATP]
# T1 construct: purchased Carna Biosciences
# Procedure: (§1) IC50 values were determined from a 10-point concentration curve using ATP concentrations approximating Km values. […] The percentage inhibition of each test solution was calculated, which allowed the IC50 value to be determined from concentration versus percentage inhibition curves by fitting to a four parameter logistic curve.
# CLK1 = target: T2, CLK1 (Homo sapiens, UniProt P49759); assay: Carna IC50 determination; type: biochemical; settings: around Km [ATP]
# T2 construct: purchased Carna Biosciences
# T2 sequence (P49759 whole entry): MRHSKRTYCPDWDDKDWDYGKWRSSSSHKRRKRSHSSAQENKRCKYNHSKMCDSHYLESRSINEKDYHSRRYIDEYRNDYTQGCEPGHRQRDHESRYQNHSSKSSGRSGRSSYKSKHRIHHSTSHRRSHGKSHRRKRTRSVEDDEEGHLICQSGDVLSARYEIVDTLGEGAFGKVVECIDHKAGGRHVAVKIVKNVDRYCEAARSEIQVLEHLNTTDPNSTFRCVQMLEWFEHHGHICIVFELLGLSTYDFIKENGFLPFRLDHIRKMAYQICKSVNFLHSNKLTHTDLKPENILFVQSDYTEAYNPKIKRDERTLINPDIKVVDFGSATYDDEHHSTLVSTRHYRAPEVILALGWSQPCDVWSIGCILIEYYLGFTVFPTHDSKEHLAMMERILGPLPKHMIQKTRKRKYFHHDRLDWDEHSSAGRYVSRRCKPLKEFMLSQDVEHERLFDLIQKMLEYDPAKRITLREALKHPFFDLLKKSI
# Procedure: as §1
# CDK4/cyclin D3 = target: T3, CDK4/cyclin D3 (Homo sapiens, UniProt P11802); assay: Carna IC50 determination; type: biochemical; settings: around Km [ATP]
# T3 construct: made in house
# T3 sequence (P11802 whole entry): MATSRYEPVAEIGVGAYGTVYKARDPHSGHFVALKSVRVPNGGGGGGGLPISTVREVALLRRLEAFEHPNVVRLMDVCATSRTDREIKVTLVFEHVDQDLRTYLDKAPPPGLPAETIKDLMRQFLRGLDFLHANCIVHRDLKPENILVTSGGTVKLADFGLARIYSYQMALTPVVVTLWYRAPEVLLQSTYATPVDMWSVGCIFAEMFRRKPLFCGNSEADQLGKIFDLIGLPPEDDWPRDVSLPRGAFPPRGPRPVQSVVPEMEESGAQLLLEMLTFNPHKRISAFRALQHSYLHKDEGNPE
# T3 sequence (P30281 whole entry partner): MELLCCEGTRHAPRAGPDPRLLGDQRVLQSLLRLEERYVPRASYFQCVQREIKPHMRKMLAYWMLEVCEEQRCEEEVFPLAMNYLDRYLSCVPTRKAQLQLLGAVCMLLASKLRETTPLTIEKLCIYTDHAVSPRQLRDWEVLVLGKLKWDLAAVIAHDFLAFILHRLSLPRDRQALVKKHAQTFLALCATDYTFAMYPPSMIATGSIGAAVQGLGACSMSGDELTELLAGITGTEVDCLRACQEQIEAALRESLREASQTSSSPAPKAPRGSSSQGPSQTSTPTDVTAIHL
# Procedure: as §1
# OCI-AML2 = assay: Resazurin reduction cell viability assay; type: cell-based, human
# Procedure: (§2) Solid tumor cell lines were seeded in 100 μl medium into 96-well plates at an appropriate cell number determined by a cell dilution assay (Cal51–2000 cells/well; Colo205, MCF10A and 184A1–3000 cells/well and MDA-MB-468, HCC1954–4000 cells/well). AML suspension cells were seeded in 96-well plates at approximately 3000 cells per well. Cells were incubated overnight at 37°C, 5% CO2. The following day, 100 μl fresh medium containing increasing concentrations of appropriate compound was added and the cells were incubated for up to 72 h at 37°C, 5% CO2. For pulse treatment of solid (adherent) tumor cell lines, medium was aspirated and replaced with fresh drug-free medium. For pulse treatment of suspension lines, plates were centrifuged at 478 xg for 5 min at the end of the incubation period with compound, medium containing compound was carefully aspirated and replaced with fresh compound-free medium. A total of 72 h after the start of treatment, 20 μl of a 10X stock of resazurin sodium salt (Sigma-Aldrich, Dorset, UK) prepared in medium was added to the cells and incubated for up to 3 h. […] was measured on the Wallac Victor plate reader (Cambridge, UK) at 544–595 nm. IC50/70/90 calculations were determined in XLFit.
# Colo205 = assay: Resazurin reduction cell viability assay; type: cell-based, human; settings: Homo sapiens, COLO 205, 72 h, 72 h continuous treatment; read-out: Colo205 IC50 ± SD
# Procedure: as §2
# MOLM-13 = assay: Resazurin reduction cell viability assay; type: cell-based, human
# Procedure: as §2
# THP-1 = assay: Resazurin reduction cell viability assay; type: cell-based, human
# Procedure: as §2
# 184A1 = assay: Resazurin reduction cell viability assay; type: cell-based, human
# Procedure: as §2
# PC3 = assay: Resazurin reduction cell viability assay; type: cell-based, human
# Procedure: as §2
# MCF10A = assay: Resazurin reduction cell viability assay; type: cell-based, human
# Procedure: as §2
# PL21 = assay: Resazurin reduction cell viability assay; type: cell-based, human
# Procedure: as §2
# KG-1 = assay: Resazurin reduction cell viability assay; type: cell-based, human
# Procedure: as §2
# MDA-MB-231 = assay: Resazurin reduction cell viability assay; type: cell-based, human
# Procedure: as §2
# MV4-11 = assay: Resazurin reduction cell viability assay; type: cell-based, human
# Procedure: as §2
# A549 = assay: Resazurin reduction cell viability assay; type: cell-based, human
# Procedure: as §2
# HEL = assay: Resazurin reduction cell viability assay; type: cell-based, human
# Procedure: as §2
# OCI-AML5 = assay: Resazurin reduction cell viability assay; type: cell-based, human
# Procedure: as §2
# A2780 = assay: Resazurin reduction cell viability assay; type: cell-based, human; settings: 6 h pulse
# Procedure: as §2
# subcutaneous HL60 tumors = assay: HL-60 human promyelocytic leukemia xenograft model; type: in vivo, athymic NCr-nu/nu mice
# Description: Five-week-old female athymic NCr-nu/nu mice were purchased from Harlan Sprague-Dawley (Prattville, AL). The animals were housed in microisolator cages, with up to five animals per cage in a 12-h light/dark cycle. The animals received filtered water and sterilized rodent diet (Harlan-Teklad TD8656) ad libitum. Each mouse was implanted subcutaneously near the right flank with ten million HL-60 cells using a 23-gauge needle and allowed to grow. Tumors were allowed to reach 75–144 mm^3 in size before treatment initiation. […] The %TGI values were calculated and statistical analyses performed as above.
compound,measurement,setting,value
"CC[C@H](Nc1nc(NCc2cnc(C)cc2C)c2ncn(C(C)C)c2n1)[C@@H](C)O [Fadraciclib, 2-pentanol, 3-[[6-[[(4,6-dimethyl-3-pyridinyl)methyl]amino]-9-(1-methylethyl)-9Hpurin-2-yl]amino]-, (2R,3S)]",IC50,CDK2/cyclin A,4.5 ± 0.4 nM
same,IC50,CLK1,549 ± 81 nM
same,IC50,CDK4/cyclin D3,232 ± 27 nM
same,IC50,"OCI-AML2; Homo sapiens, OCI-AML2, 72 h, OCI-AML2, 72 h continuous, read-out: 72 h continuous IC50 ± SD",220 ± 30 nM
same,IC50,"OCI-AML2; Homo sapiens, OCI-AML2, read-out: 6 h pulse IC50 ± SD, OCI-AML2, 6 h pulse then 66 h release",530 nM
same,IC90,"OCI-AML2; Homo sapiens, OCI-AML2, 6 h pulse then 66 h release",1800 nM
same,IC50,"OCI-AML2; read-out: 6 h pulse IC50 ± SD, OCI-AML2, 6 h pulse then 66 h release",550 ± 70 nM
same,IC50,Colo205,310 nM
same,IC50,"MOLM-13; Homo sapiens, MOLM-13, 72 h, MOLM-13, 72 h continuous, read-out: 72 h continuous IC50 ± SD",240 ± 50 nM
same,IC50,"MOLM-13; Homo sapiens, MOLM-13, read-out: 6 h pulse IC50 ± SD, MOLM-13, 6 h pulse then 66 h release",260 nM
same,IC90,"MOLM-13; Homo sapiens, MOLM-13, 6 h pulse then 66 h release",400 nM
same,IC50,"MOLM-13; read-out: 6 h pulse IC50 ± SD, MOLM-13, 6 h pulse then 66 h release",250 ± 50 nM
same,IC50,"THP-1; Homo sapiens, THP-1, 72 h, THP-1, 72 h continuous, read-out: 72 h continuous IC50 ± SD",570 ± 180 nM
same,IC50,"THP-1; Homo sapiens, THP-1, 72 h, THP-1, value the 7 x 7 combination matrix spans, 72 h, read-out: IC50 value of each compound (single agent)",430 nM
same,IC50,"THP-1; Homo sapiens, THP-1, read-out: 6 h pulse IC50 ± SD, THP-1, 6 h pulse then 66 h release",1100 nM
same,IC90,"THP-1; Homo sapiens, THP-1, 6 h pulse then 66 h release",6800 nM
same,IC50,"THP-1; read-out: 6 h pulse IC50 ± SD, THP-1, 6 h pulse then 66 h release",1080 ± 230 nM
same,IC50,"184A1; Homo sapiens, 184A1, 72 h, 184A1, continuous 72 h, read-out: continuous IC50 ± SD",250 ± 10 nM
same,IC50,"184A1; Homo sapiens, 184A1, read-out: 8 h pulse IC50 ± SD, 184A1 (non-malignant), 8 h pulse, read at 72 h",3900 nM
same,IC50,"184A1; read-out: 8 h pulse IC50 ± SD, 184A1 (non-malignant), 8 h pulse, read at 72 h",3870 ± 2100 nM
same,"sensitivity, 6 h pulse versus continuous 72 h",PC3,sensitive to fadraciclib only after more prolonged treatment
same,IC50,"MCF10A; Homo sapiens, MCF-10A, 72 h, MCF10A, continuous 72 h, read-out: continuous IC50 ± SD",400 ± 30 nM
same,IC50,"MCF10A; Homo sapiens, MCF-10A, read-out: 8 h pulse IC50 ± SD, MCF10A (non-malignant), 8 h pulse, read at 72 h",3900 nM
same,IC50,"MCF10A; read-out: 8 h pulse IC50 ± SD, MCF10A (non-malignant), 8 h pulse, read at 72 h",3890 ± 1040 nM
same,IC50,"PL21; Homo sapiens, PL-21, 72 h, PL21, 72 h continuous, read-out: 72 h continuous IC50 ± SD",340 ± 90 nM
same,IC90,"PL21; Homo sapiens, PL-21, PL21, 6 h pulse then 66 h release",9920 nM
same,IC50,"PL21; Homo sapiens, PL-21, read-out: 6 h pulse IC50 ± SD, PL21, 6 h pulse then 66 h release",2550 nM
same,IC50,"PL21; read-out: 6 h pulse IC50 ± SD, PL21, 6 h pulse then 66 h release",2540 ± 2710 nM
same,IC50,"KG-1; Homo sapiens, KG-1, 72 h, KG-1, 72 h continuous, read-out: 72 h continuous IC50 ± SD",350 ± 30 nM
same,IC50,"KG-1; Homo sapiens, KG-1, read-out: 6 h pulse IC50 ± SD, KG-1, 6 h pulse then 66 h release",500 nM
same,IC90,"KG-1; Homo sapiens, KG-1, 6 h pulse then 66 h release",3700 nM
same,IC50,"KG-1; read-out: 6 h pulse IC50 ± SD, KG-1, 6 h pulse then 66 h release",470 ± 120 nM
same,"sensitivity, 6 h pulse versus continuous 72 h",MDA-MB-231,sensitive to fadraciclib only after more prolonged treatment
same,IC50,"MV4-11; Homo sapiens, MV4-11, 72 h, MV4-11, 72 h continuous, read-out: 72 h continuous IC50 ± SD",260 ± 80 nM
same,IC50,"MV4-11; Homo sapiens, MV4-11, read-out: 6 h pulse IC50 ± SD, MV4-11, 6 h pulse then 66 h release",500 nM
same,IC90,"MV4-11; Homo sapiens, MV4-11, 6 h pulse then 66 h release",920 nM
same,IC50,"MV4-11; read-out: 6 h pulse IC50 ± SD, MV4-11, 6 h pulse then 66 h release",510 ± 40 nM
same,"sensitivity, 6 h pulse versus continuous 72 h",A549,sensitive to fadraciclib only after more prolonged treatment
same,IC50,"HEL; Homo sapiens, 72 h, 72 h continuous, read-out: 72 h continuous IC50 ± SD",530 ± 200 nM
same,IC50,"HEL; Homo sapiens, read-out: 6 h pulse IC50 ± SD, HEL, 6 h pulse then 66 h release",5120 nM
same,IC50,"HEL; read-out: 6 h pulse IC50 ± SD, 6 h pulse then 66 h release",5110 ± 880 nM
same,IC50,"OCI-AML5; Homo sapiens, OCI-AML-5, 72 h, OCI-AML5, 72 h continuous, read-out: 72 h continuous IC50 ± SD",310 ± 130 nM
same,IC90,"OCI-AML5; Homo sapiens, OCI-AML-5, OCI-AML5, 6 h pulse then 66 h release",18500 nM
same,IC50,"OCI-AML5; Homo sapiens, OCI-AML-5, read-out: 6 h pulse IC50 ± SD, OCI-AML5, 6 h pulse then 66 h release",1440 nM
same,IC50,"OCI-AML5; read-out: 6 h pulse IC50 ± SD, OCI-AML5, 6 h pulse then 66 h release",1450 ± 50 nM
same,"IC50, short pulse",A2780,submicromolar
same,mean body weight loss,subcutaneous HL60 tumors; 70 mg/kg oral (highest dose),8%
same,tumor growth delay T-C,"subcutaneous HL60 tumors; 70 mg/kg oral, 5 days on/2 days off, 2 cycles",> 12.6 days
same,TGI,"subcutaneous HL60 tumors; 70 mg/kg oral, Day 11",90%
same,tumor regression,"subcutaneous HL60 tumors; 70 mg/kg oral, groups of 10 animals",Two animals achieved tumor regression and one was determined to be tumor-free
